Assay results from patent EP1078630A1, “Use of sigma receptor agonists for the treatment of depression” (WARNER-LAMBERT COMPANY, priority 1999, dated 2001).

How the values were obtained:
[1] = literature (Ukai et al. 1998, Matsuno et al. 1996, Tottori et al. 1997, Kinsora et al. 1998); cited from earlier work
Male Swiss OF1 mice = assay: Forced swim test in non-operated Swiss mice (duration of immobility); assay type: in vivo
Description: (§1) Male Swiss OF1 mice (Breeding center of the Faculty of Pharmacy, Montpellier, France), aged 5-6 weeks and weighing 30 ± 2 g are used throughout the study. Animals are housed in plastic cages in groups. They have free access to laboratory chow and water, except during behavioral experiments, and they are kept in a regulated environment (23 ± 1°C, 40-60% humidity) under a 12-hr light/dark cycle (light on at 7:00 a.m.). Experiments are carried out between 9:00 a.m. and 6:00 p.m., in a soundproof and air-regulated experimental room, to which mice are habituated at least 30 min before each experiment.
(§2) PROG and finasteride are suspended in sesame oil; other drugs are solubilized in distilled water or saline solution. Drugs are injected subcutaneously (s.c.) or intraperitoneally (i.p.), in a volume of 100 µl per 20 g of body weight.
(§3) Each mouse is placed individually in a glass cylinder (diameter 12 cm, height 24 cm) filled with water at a height of 12 cm. Water temperature is maintained at 22-23°C. The animal is forced to swim for 15 min on the first day. Animals are then allowed to return to their home cage. On the second day, each mouse is placed again into the water and forced to swim for 6 min. The session is videotaped and the duration of immobility during the last 5 min is measured. The mouse is considered as immobile when it stops struggling and moves only to remain floating in the water, keeping its head above water. Drugs are administered 30 min before the session on the second day. Finasteride is administered twice, 14 and 2 hr before the session on day 2.
(§4) Results are expressed as means ± S.E.M. Data are analyzed using the Dunnett's multiple comparisons test after an analyzis of variance (ANOVA, F values). The criterion for statistical significance is P < 0.05.

AdX/CX Swiss mice = assay: Forced swim test in adrenalectomized/castrated (AdX/CX) Swiss mice; assay type: in vivo; details: for effect in AdX/CX animals as compared to non-operated mice: comparison of AdX/CX with non-operated animals; for influence of removal of circulating steroids on the antidepressant effect: AdX/CX versus non-operated mice
Description: as §1, §2, §3
About one week after habituation to the animal facilities, animals are anaesthetized with sodium pentobarbital 2%, 100 µl/30 g body weight i.p. Both adrenal glands are removed, through incisions in the back of the animal, just below the breast ribs. The skin is sutured. Then, both testes are ligatured and cut, through an incision in the scrotum. Animals received an injection of gentamycine 10 mg/kg i.p. and recovered within few hours from surgery. After surgery, drinking tap water is replaced by saccharose 1%, NaCI 0.9% solution. Animals are used for behavioral experiments six days after surgery.
as §4

SMILES: C=CCN1CCC2(C)c3cc(O)ccc3CC1C2C (single isomer, unassigned; (+)) [(+)-SKF-10,047]
- antidepressant effects in animal models [1]: reduce the immobility time in the forced swim test or are active in the tail suspension test
- immobility time (Male Swiss OF1 mice; 30 mg/kg, Fig. 1B): decreases the immobility time

SMILES: CC(C)=CCN1CCC2(C)c3cc(O)ccc3CC1C2C (single isomer, unassigned; (+)) [(+)-pentazocine]
- antidepressant effects in animal models [1]: reduce the immobility time in the forced swim test or are active in the tail suspension test

SMILES: C[C@]12CC[C@H](OS(=O)(=O)O)CC1=CC[C@@H]1[C@@H]2CC[C@]2(C)C(=O)CC[C@@H]12 [DHEAS]
- immobility time (AdX/CX Swiss mice; AdX/CX animals, 5-60 mg/kg dose-range, Fig. 7): significant diminution of the immobility time at all the doses examined
- effect in AdX/CX animals as compared to non-operated mice (AdX/CX Swiss mice): in a more efficient manner as compared to non-operated animals
- immobility time (Male Swiss OF1 mice; 10 mg/kg dose (5-60 mg/kg range tested), Fig. 3A): slightly but significantly shortens the immobility time
- immobility time (Male Swiss OF1 mice; dosages lower or higher than 10 mg/kg within 5-60 mg/kg, Fig. 3A): devoid of effect

SMILES: Cc1ccccc1NC(=N)Nc1ccccc1C [DTG]
- antidepressant effects in animal models [1]: reduce the immobility time in the forced swim test or are active in the tail suspension test

SMILES: CC(C)(C)NC(=O)[C@H]1CC[C@H]2[C@@H]3CC[C@H]4NC(=O)C=C[C@]4(C)[C@H]3CC[C@]12C [Finasteride, finasteride]
- immobility time (AdX/CX Swiss mice; finasteride pretreatment (25 mg/kg s.c., 14 and 2 hr before session) in vehicle-treated AdX/CX mice, Fig. 5): does not affect the immobility time
- effect on the diminution of immobility time induced by igmesine (AdX/CX Swiss mice; finasteride pretreatment (25 mg/kg s.c., 14 and 2 hr before), igmesine 60 mg/kg, AdX/CX mice, Fig. 5): significantly alters the diminution induced by igmesine

SMILES: CCCN(CCC)CCc1ccc(OC)c(OCCc2ccccc2)c1 [NE-100]
- antagonism of the antidepressant effect of DHEAS (AdX/CX Swiss mice; NE-100 i.p. 15 min before DHEAS, AdX/CX mice, Fig. 8B): fully antagonizes
- antagonism of the antidepressant effect of igmesine (AdX/CX Swiss mice; NE-100 i.p. 15 min before igmesine, AdX/CX mice, Fig. 8A): fully antagonizes
- immobility time (Male Swiss OF1 mice; 1-10 mg/kg i.p. dose-range, given alone, Fig. 1C): does not affect the immobility time by itself
- antagonism of the reduction of immobility time induced by igmesine (Male Swiss OF1 mice; NE-100 10 mg/kg pre-administered i.p. 15 min before igmesine, Fig. 1D): completely antagonizes the reduction of immobility time induced by igmesine
- antagonism of the DHEAS-induced diminution of immobility time (Male Swiss OF1 mice; NE-100 i.p. 15 min before DHEAS, Fig. 4B): prevents the DHEAS-induced diminution of immobility time

SMILES: COc1cccc2c1CCC(=O)N2CCCN1CCN(c2cccc(Cl)c2)CC1 [OPC14523]
- antidepressant effects in animal models [1]: reduce the immobility time in the forced swim test or are active in the tail suspension test

SMILES: CC(=O)[C@H]1CC[C@H]2[C@@H]3CC=C4C[C@@H](OS(=O)(=O)O)CC[C@]4(C)[C@H]3CC[C@]12C [PREGS]
- immobility time (Male Swiss OF1 mice; 5-40 mg/kg dose range, Fig. 3B): fails to affect the immobility time

SMILES: CC(=O)[C@H]1CC[C@H]2[C@@H]3CCC4=CC(=O)CC[C@]4(C)[C@H]3CC[C@]12C [PROG, progesterone]
- immobility time (Male Swiss OF1 mice; 5-60 mg/kg dose range, given alone, Fig. 3C): does not affect the immobility time by itself
- antagonism of the DHEAS effect on immobility time (Male Swiss OF1 mice; PROG 20-60 mg/kg pre-administered before DHEAS 10 mg/kg, Fig. 3D): significant antagonism of its effect
- antagonism of the igmesine-induced reduction of immobility (Male Swiss OF1 mice; PROG pre-administered i.p. 15 min before igmesine, Fig. 4A): fully blocks the igmesine-induced reduction of immobility

SMILES: COc1ccc(CCN2CCN(CCCc3ccccc3)CC2)cc1OC [SA4503]
- antidepressant effects in animal models [1]: reduce the immobility time in the forced swim test or are active in the tail suspension test

SMILES: CNCCCN1c2ccccc2CCc2ccccc21 [desipramine]
- influence of removal of circulating steroids on the antidepressant effect (AdX/CX Swiss mice): failed to be affected by the removal of circulating steroids
- immobility time (Male Swiss OF1 mice; 30 and 60 mg/kg i.p., Fig. 2): shortened the immobility time

SMILES: CNCCC(Oc1ccc(C(F)(F)F)cc1)c1ccccc1 (stereo not drawn) [fluoxetine]
- antidepressant effect in the forced swim test (AdX/CX Swiss mice; AdX/CX Swiss mice, i.p. 30 min before session on day 2, Fig. 6): antidepressant effect
- influence of removal of circulating steroids on the antidepressant effect (AdX/CX Swiss mice): failed to be affected by the removal of circulating steroids
- immobility time (Male Swiss OF1 mice; 30 and 60 mg/kg i.p., Fig. 2): shortened the immobility time

SMILES: CCC(C/C=C/c1ccccc1)(c1ccccc1)N(C)CC1CC1.Cl (stereo not drawn) [igmesine, (E)-(+)-N-(cyclopropylmethyl)-α-ethyl-N-methyl-α-(3-phenyl-2-propenyl)benzenemethanamine hydrochloride]
- antidepressant effects in animal models [1]: reduce the immobility time in the forced swim test or are active in the tail suspension test
- immobility time (AdX/CX Swiss mice; AdX/CX animals, 20 and 60 mg/kg, dose-dependent, Fig. 5): shortens significantly the immobility time
- effect in AdX/CX animals as compared to non-operated mice (AdX/CX Swiss mice): enhanced
- immobility time (Male Swiss OF1 mice; 60 mg/kg i.p., 30 min before session on day 2, Fig. 1A): significantly shortens the immobility time
